Test results published in patent US20220183294A1, “PESTICIDALLY ACTIVE AZOLE AMIDE COMPOUNDS” (SYNGENTA CROP PROTECTION AG, priority 2019, published 2022).

Columns and labels:
Format in all cases: in vivo
[1] = test system: Chilo suppressalis (Striped rice stemborer); experiment: Example B4: Chilo suppressalis (Striped rice stemborer), artificial diet; conditions: 144 h, application rate 200 ppm, L2 larvae, 6 days after infestation, read-out: control in at least one of the three categories (mortality, anti-feedant effect, or growth inhibition)
Experimental: Example B4: Chilo suppressalis (Striped rice stemborer) 24-well microtiter plates with artificial diet were treated with aqueous test solutions prepared from 10′000 ppm DMSO stock solutions by pipetting. After drying, the plates were infested with L2 larvae (6-8 per well). The samples were assessed for mortality, anti-feeding effect, and growth inhibition in comparison to untreated samples 6 days after infestation. Control of Chilo suppressalis by a test sample is given when at least one of the categories mortality, anti-feedant effect, and growth inhibition is higher than the untreated sample.

[2] = test system: Plutella xylostella (Diamond back moth); experiment: Example B5: Plutella xylostella (Diamond back moth), artificial diet, 24-well; conditions: 192 h, application rate 200 ppm, eggs, 8 days after infestation, read-out: control in at least one of the two categories (mortality or growth inhibition)
Experimental: Example B5: Plutella xylostella (Diamond back moth)
24-well microtiter plates with artificial diet were treated with aqueous test solutions prepared from 10′000 ppm DMSO stock solutions by pipetting. After drying, Plutella eggs were pipetted through a plastic stencil onto a gel blotting paper and the plate was closed with it. The samples were assessed for mortality and growth inhibition in comparison to untreated samples 8 days after infestation.
(§1) The following compounds gave an effect of at least 80% control in at least one of the two categories (mortality or growth inhibition) at an application rate of 200 ppm: […]

[3] = test system: Spodoptera littoralis (Egyptian cotton leaf worm); experiment: Example B9: Spodoptera littoralis (Egyptian cotton leaf worm), sprayed cotton leaf discs; conditions: foliar, 72 h, application rate 200 ppm, L1 larvae, 3 days after infestation, read-out: control in at least one of the three categories (mortality, anti-feedant effect, or growth inhibition)
Experimental: Example B9: Spodoptera littoralis (Egyptian cotton leaf worm)
Cotton leaf discs were placed onto agar in 24-well microtiter plates and sprayed with aqueous test solutions prepared from 10′000 ppm DMSO stock solutions. After drying the leaf discs were infested with five L1 larvae. The samples were assessed for mortality, anti-feeding effect, and growth inhibition in comparison to untreated samples 3 days after infestation. Control of Spodoptera littoralis by a test sample is given when at least one of the categories mortality, anti-feedant effect, and growth inhibition is higher than the untreated sample.

[4] = test system: Diabrotica balteata (Corn root worm); experiment: Example B1: Diabrotica balteata (Corn root worm), sprayed maize sprouts; conditions: 96 h, application rate 200 ppm, L2 larvae, 4 days after infestation, read-out: control in at least one of the two categories (mortality or growth inhibition)
Experimental: Example B1: Diabrotica balteata (Corn root worm)
Maize sprouts placed onto an agar layer in 24-well microtiter plates were treated with aqueous test solutions prepared from 10′000 ppm DMSO stock solutions by spraying. After drying, the plates were infested with L2 larvae (6 to 10 per well). The samples were assessed for mortality and growth inhibition in comparison to untreated samples 4 days after infestation.
as §1

CC(NC(=O)c1cc(C(F)(F)F)cc(C2(C#N)CC2)c1)c1ncnn1-c1ncc(OCC(F)(F)F)cn1 (centres unmarked) [P25, 3-(1-cyanocyclopropyl)-N-[1-[2-[5-(2,2,2-trifluoroethoxy)pyrimidin-2-yl]-1,2,4-triazol-3-yl]ethyl]-5-(trifluoromethyl) benzamide]
≥ 80%: percent control (mortality, anti-feedant effect or growth inhibition) at 200 ppm [1] | percent control (mortality or growth inhibition) at 200 ppm [2] | percent control (mortality, anti-feedant effect or growth inhibition) at 200 ppm [3]

CC(NC(=O)c1cc(C2CC2)cc(C(F)(F)F)c1)c1ncnn1-c1ncc(OCC(F)F)cn1 (centres unmarked) [P23, 3-cyclopropyl-N-[1-[2-[5-(2,2-difluoroethoxy)pyrimidin-2-yl]-1,2,4-triazol-3-yl]ethyl]-5-(trifluoromethyl) benzamide]
≥ 80%: percent control (mortality or growth inhibition) at 200 ppm [4] | percent control (mortality, anti-feedant effect or growth inhibition) at 200 ppm [1] | percent control (mortality or growth inhibition) at 200 ppm [2] | percent control (mortality, anti-feedant effect or growth inhibition) at 200 ppm [3]

CC(NC(=O)c1cc(C2CC2)nc(C(F)(F)F)c1)c1ncnn1-c1ccc(C#N)cn1 (centres unmarked) [P15, N-[1-[2-(5-cyano-2-pyridyl)-1,2,4-triazol-3-yl]ethyl]-2-cyclopropyl-6-(trifluoromethyl)pyridine-4-carboxamide]
≥ 80%: percent control (mortality or growth inhibition) at 200 ppm [4] | percent control (mortality, anti-feedant effect or growth inhibition) at 200 ppm [1] | percent control (mortality or growth inhibition) at 200 ppm [2] | percent control (mortality, anti-feedant effect or growth inhibition) at 200 ppm [3]

CC(NC(=O)c1cc(C(F)(F)F)cc(C2(C#N)CC2)c1)c1ncnn1-c1ncc(OC(F)F)cn1 (centres unmarked) [P26, 3-(1-cyanocyclopropyl)-N-[1-[2-[5-(difluoromethoxy)pyrimidin-2-yl]-1,2,4-triazol-3-yl]ethyl]-5-(trifluoromethyl) benzamide]
≥ 80%: percent control (mortality, anti-feedant effect or growth inhibition) at 200 ppm [1] | percent control (mortality or growth inhibition) at 200 ppm [2] | percent control (mortality, anti-feedant effect or growth inhibition) at 200 ppm [3]

CC(NC(=O)c1cc(C2CC2C(F)(F)F)cc(C(F)(F)F)c1)c1ncnn1-c1ccc(C#N)cn1 (centres unmarked) [P13, N-[1-[2-(5-cyano-2-pyridyl)-1,2,4-triazol-3-yl]ethyl]-3-(trifluoromethyl)-5-[2-(trifluoromethyl)cyclopropyl]benzamide]
≥ 80%: percent control (mortality or growth inhibition) at 200 ppm [4] | percent control (mortality, anti-feedant effect or growth inhibition) at 200 ppm [1] | percent control (mortality or growth inhibition) at 200 ppm [2] | percent control (mortality, anti-feedant effect or growth inhibition) at 200 ppm [3]

CC(NC(=O)c1cc(C(F)(F)F)nc(C2(C#N)CC2)c1)c1ncnn1-c1ncc(OCC(F)F)cn1 (centres unmarked) [P10, 2-(1-cyanocyclopropyl)-N-[1-[2-[5-(2,2-difluoroethoxy)pyrimidin-2-yl]-1,2,4-triazol-3-yl]ethyl]-6-(trifluoromethyl) pyridine-4-carboxamide]
≥ 80%: percent control (mortality or growth inhibition) at 200 ppm [4] | percent control (mortality, anti-feedant effect or growth inhibition) at 200 ppm [1] | percent control (mortality or growth inhibition) at 200 ppm [2] | percent control (mortality, anti-feedant effect or growth inhibition) at 200 ppm [3]

CC(NC(=O)c1cc(C(F)(F)F)nc(C2(C#N)CC2)c1)c1ncnn1-c1ncc(OCC(F)(F)F)cn1 (centres unmarked) [P30, 2-(1-cyanocyclopropyl)-N-[1-[2-[5-(2,2,2-trifluoroethoxy)pyrimidin-2-yl]-1,2,4-triazol-3-yl]ethyl]-6-(trifluoromethyl) pyridine-4-carboxamide]
≥ 80%: percent control (mortality or growth inhibition) at 200 ppm [2] | percent control (mortality, anti-feedant effect or growth inhibition) at 200 ppm [3]

CC(NC(=O)c1cc(C(F)(F)F)cc(C(F)(F)C2CC2)c1)c1ncnn1-c1ccc(C#N)cn1 (centres unmarked) [P4, N-[1-[2-(5-cyano-2-pyridyl)-1,2,4-triazol-3-yl]ethyl]-3-[cyclopropyl(difluoro)methyl]-5-(trifluoromethyl)benzamide]
≥ 80%: percent control (mortality or growth inhibition) at 200 ppm [4] | percent control (mortality, anti-feedant effect or growth inhibition) at 200 ppm [1] | percent control (mortality or growth inhibition) at 200 ppm [2] | percent control (mortality, anti-feedant effect or growth inhibition) at 200 ppm [3]

CC(NC(=O)c1cc(C(F)(F)F)cc(S(=O)(=O)C(F)(F)F)c1)c1ncnn1-c1ncc(OCC(F)F)cn1 (centres unmarked) [P16, N-[1-[2-[5-(2,2-difluoroethoxy)pyrimidin-2-yl]-1,2,4-triazol-3-yl]ethyl]-3-(trifluoromethyl)-5-(trifluoromethylsulfonyl) benzamide]
≥ 80%: percent control (mortality or growth inhibition) at 200 ppm [4] | percent control (mortality, anti-feedant effect or growth inhibition) at 200 ppm [1] | percent control (mortality or growth inhibition) at 200 ppm [2] | percent control (mortality, anti-feedant effect or growth inhibition) at 200 ppm [3]

CC(NC(=O)c1cc(C(F)(F)F)cc(C2(C#N)CC2)c1)c1ncnn1-c1ccc(C#N)cn1 (centres unmarked) [P18, 3-(1-cyanocyclopropyl)-N-[1-[2-(5-cyano-2-pyridyl)-1,2,4-triazol-3-yl]ethyl]-5-(trifluoromethyl) benzamide]
≥ 80%: percent control (mortality, anti-feedant effect or growth inhibition) at 200 ppm [1] | percent control (mortality or growth inhibition) at 200 ppm [2] | percent control (mortality, anti-feedant effect or growth inhibition) at 200 ppm [3]

CC(NC(=O)c1cc(C(F)(F)F)cc(C(F)(F)C2CC2)c1)c1ncnn1-c1ncc(OCC(F)(F)F)cn1 (centres unmarked) [P20, 3-[cyclopropyl(difluoro)methyl]-N-[1-[2-[5-(2,2,2-trifluoroethoxy)pyrimdin-2-yl]-1,2,4-triazol-3-yl]ethyl]-5-(trifluoromethyl) benzamide]
≥ 80%: percent control (mortality, anti-feedant effect or growth inhibition) at 200 ppm [1] | percent control (mortality or growth inhibition) at 200 ppm [2] | percent control (mortality, anti-feedant effect or growth inhibition) at 200 ppm [3]

CC(NC(=O)c1cc(C(F)(F)F)cc(C2(C#N)CC2)c1)c1ncnn1-c1ncc(OCC(F)F)cn1 (centres unmarked) [P31, 3-(1-cyanocyclopropyl)-N-[1-[2-[5-(2,2-difluoroethoxy)pyrimidin-2-yl]-1,2,4-triazol-3-yl]ethyl]-5-(trifluoromethyl) benzamide]
≥ 80%: percent control (mortality, anti-feedant effect or growth inhibition) at 200 ppm [1] | percent control (mortality or growth inhibition) at 200 ppm [2]

CC(NC(=O)c1cc(C(F)(F)F)cc(C(F)(F)C2CC2)c1)c1ncnn1-c1ccc(OC(F)F)cn1 (centres unmarked) [P19, 3-[cyclopropyl(difluoro)methyl]-N-[1-[2-[5-(difluoromethoxy)-2-pyridyl]-1,2,4-triazol-3-yl]ethyl]-5-(trifluoromethyl) benzamide]
≥ 80%: percent control (mortality, anti-feedant effect or growth inhibition) at 200 ppm [1] | percent control (mortality or growth inhibition) at 200 ppm [2] | percent control (mortality, anti-feedant effect or growth inhibition) at 200 ppm [3]

CC(NC(=O)c1cc(C(F)(F)F)nc(C2(C#N)CC2)c1)c1ncnn1-c1ccc(OC(F)F)cn1 (centres unmarked) [P17, 2-(1-cyanocyclopropyl)-N-[1-[2-[5-(difluoromethoxy)-2-pyridyl]-1,2,4-triazol-3-yl]ethyl]-6-(trifluoromethyl) pyridine-4-carboxamide]
≥ 80%: percent control (mortality or growth inhibition) at 200 ppm [4] | percent control (mortality, anti-feedant effect or growth inhibition) at 200 ppm [1] | percent control (mortality or growth inhibition) at 200 ppm [2] | percent control (mortality, anti-feedant effect or growth inhibition) at 200 ppm [3]

CC(NC(=O)c1cc(C(F)(F)F)cc(C2(C#N)CC2)c1)c1ncnn1-c1ccc(OC(F)F)cn1 (centres unmarked) [P24, 3-(1-cyanocyclopropyl)-N-[1-[2-[5-(difluoromethoxy)-2-pyridyl]-1,2,4-triazol-3-yl]ethyl]-5-(trifluoromethyl) benzamide]
≥ 80%: percent control (mortality or growth inhibition) at 200 ppm [4] | percent control (mortality, anti-feedant effect or growth inhibition) at 200 ppm [1] | percent control (mortality or growth inhibition) at 200 ppm [2] | percent control (mortality, anti-feedant effect or growth inhibition) at 200 ppm [3]

CC(NC(=O)c1cc(C(F)(F)F)nc(C2(C#N)CC2)c1)c1ncnn1-c1ncc(OC(F)F)cn1 (centres unmarked) [P8, 2-(1-cyanocyclopropyl)-N-[1-[2-[5-(difluoromethoxy)pyrimidin-2-yl]-1,2,4-triazol-3-yl]ethyl]-6-(trifluoromethyl) pyridine-4-carboxamide]
≥ 80%: percent control (mortality or growth inhibition) at 200 ppm [4] | percent control (mortality, anti-feedant effect or growth inhibition) at 200 ppm [1] | percent control (mortality or growth inhibition) at 200 ppm [2] | percent control (mortality, anti-feedant effect or growth inhibition) at 200 ppm [3]

CC(NC(=O)c1cc(C(F)(F)F)cc(C(F)(F)C2CC2)c1)c1ncnn1-c1ncc(OCC(F)F)cn1 (centres unmarked) [P11, 3-[cyclopropyl(difluoro)methyl]-N-[1-[2-[5-(2,2-difluoroethoxy)pyrimidin-2-yl]-1,2,4-triazol-3-yl]ethyl]-5-(trifluoromethyl) benzamide]
≥ 80%: percent control (mortality or growth inhibition) at 200 ppm [4] | percent control (mortality, anti-feedant effect or growth inhibition) at 200 ppm [1] | percent control (mortality or growth inhibition) at 200 ppm [2] | percent control (mortality, anti-feedant effect or growth inhibition) at 200 ppm [3]
